Patent publication US20160374979A1, “Method of Treatment of Alopecia with Monoterpenoids” (CELLMID LIMITED, priority 2013, published 2016)
“Also recorded” adds a separate entry of the source.

System: Alkaline Phosphatase (ALP) activity in dermal papilla (DP) cells treated with FGF-5
Test: Dermal papilla alkaline phosphatase (DP-ALP) cell assay
Format: cell-based, human
Conditions: for relative ALP activity of DP cells treated FGF-5: 0.005-0.5 mg/ml, GSK3 inhibitor IX + rhFGF-5 1 μg/mL, 3 days, absorbance 490 nm
Experimental: Dermal papilla cells were prepared according to the methods described in WO2013/105417, Briefly, hairs were pulled from the scalp of a healthy subject showing normal non-alopecia hair growth using tweezers. Hair follicles with dermal papilla were thus obtained at a rate of approximately one for every 100 hairs pulled. The hair follicles with dermal papilla were separated from the hair using tweezers and transferred into a saline for inspection under a microscope. Under a microscope, each dermal papilla was isolated from a respective hair follicle using tweezers and a scalpel. Approximately 2000 isolated dermal papilla cells were then transferred to a 35 mm cell culture dish together 1-2 ml of cell culture medium, after which time the cells were cultured at 37° C. to produce a primary cell culture of dermal papilla. The cell culture medium consisted of approximately 90% DMEM medium, 10% fetal bovine serum (final concentration: 10%), FGF2 (final, concentration: 10 ng/ml), and penicillin-streptornycin solution (final concentration: 1 μg/ml) for every 2 mL of medium. Cell culture conditions were maintained for more than 14 days until dermal papilla cells covered approximately 40% of the area of the 35 mm culture dish, at which time subcultures were performed. To prepare the subcultures, the cell culture medium was removed from the 35 mm culture dish and the adherent cells were washed once with 2 ml of saline (at room temperature). 1 ml Trypsin-EDTA solution (0.1% trypsin and 0.02% EDTA) was then added to the 35 mm culture dish and left to stand for 4 minutes at 37° C. Dissociated dermal papilla cells were then recovered from the 35 mm dish, and seeded to a new 100 mm dish, and cultured in media under the same conditions as for the primary cell culture described above.
When the dermal papilla cells covered approximately 70-80% of the area of each 100 mm culture dish, the sub-confluent cells were subcultured as before. The process was repeated until sufficient cells were obtained to screen compounds of interest.
Once sufficient DP cells were obtained, the cells were harvested to provide a cell suspension. To harvest the DP cells, the cell culture medium was removed from the culture dish, and the adherent cells were washed with saline at room temperature. Trypsin-EDTA solution was then added under conditions described supra to dissociate the cells from the cell culture dish. Approximately 5×10^5 of the dissociated cells were resuspended in 500 ml of assay medium containing 445 ml of DMEM medium, 50 ml of 10% fetal calf serum and 5 ml of antibiotic.
Aliquots of the cell suspension were transferred to the wells of cell culture dishes, and a single monoterpenoid listed in Example 1 e.g., (−)-4-terpinen-4-ol, (+)-4-terpinen-4-ol. (±)-4-terpinen-4-ol, α-terpineol, nonanal, linalyl acetate or piperitone, is added to each well at a concentration of 0.005 (mg/ml) or 0.01 (mg/ml) or 0.05 (mg/ml) or 0.1 (mg/ml) or 0.5 (mg/ml). Cell suspensions were transferred to wells of a further cell culture dish to which minoxidil was then added at a concentration of 0.005 (mg/ml) or 0.01 (mg/ml) or 0.05 (mg/ml) or 0.1 (mg/ml) or 0.5 (mg/ml). A Wnt/β-catenin pathway activation agent e.g., Wnt3a or GSK-3 Inhibitor IX, as added to each of the cell cultures to produce an “activated cell culture”. Control cell cultures containing the same monoterpenoid compound or minoxodil, but lacking the Wnt/β-cinenin pathway activation agent, were processed in parallel. These activated and control cell cultures were divided further into duplicate cell culture samples either lacking FGF-5 or to which recombinant human FGF-5 (rhFGF-5; 1 μg/mL)) was added.
The cell culture samples were each cultured at 37° C. for 3 days under atmosphere containing less than 5% CO2. […]

SMILES: CC1=CC(=O)C(C(C)C)CC1 (stereo not drawn) [Piperitone, 3-Methyl-6-(propan-2-yl)cyclohex-2-en-1-one]
- relative ALP activity of DP cells treated FGF-5: increased relative ALP activity
- relative ALP activity of DP cells treated FGF-5 (listed as piperitone): high alkaline phosphatase activity; also recorded: higher alkaline phosphatase activity in dermal papillae than a racemic mixture of terpinen-4-al or (+)-Terpinen-4-ol
- FGF-5-inhibitory activity ranked from most active to least active by DP-ALP assay (rank order): Piperitone>(−)-terpinen-4-ol>(±)-Terpinen-4β-Terpineol> (+)-Terpinen-4-ol > Linalyl Acetate
